Where only a bound is given, the exact number is not on record here.

For the experiment, the target named is USP7 (Homo sapiens, UniProt Q93009). The experiment is described as follows: USP7 inhibitory potency (Table 1). It is filed as biochemical.
Sequence of USP7 (Q93009 whole entry): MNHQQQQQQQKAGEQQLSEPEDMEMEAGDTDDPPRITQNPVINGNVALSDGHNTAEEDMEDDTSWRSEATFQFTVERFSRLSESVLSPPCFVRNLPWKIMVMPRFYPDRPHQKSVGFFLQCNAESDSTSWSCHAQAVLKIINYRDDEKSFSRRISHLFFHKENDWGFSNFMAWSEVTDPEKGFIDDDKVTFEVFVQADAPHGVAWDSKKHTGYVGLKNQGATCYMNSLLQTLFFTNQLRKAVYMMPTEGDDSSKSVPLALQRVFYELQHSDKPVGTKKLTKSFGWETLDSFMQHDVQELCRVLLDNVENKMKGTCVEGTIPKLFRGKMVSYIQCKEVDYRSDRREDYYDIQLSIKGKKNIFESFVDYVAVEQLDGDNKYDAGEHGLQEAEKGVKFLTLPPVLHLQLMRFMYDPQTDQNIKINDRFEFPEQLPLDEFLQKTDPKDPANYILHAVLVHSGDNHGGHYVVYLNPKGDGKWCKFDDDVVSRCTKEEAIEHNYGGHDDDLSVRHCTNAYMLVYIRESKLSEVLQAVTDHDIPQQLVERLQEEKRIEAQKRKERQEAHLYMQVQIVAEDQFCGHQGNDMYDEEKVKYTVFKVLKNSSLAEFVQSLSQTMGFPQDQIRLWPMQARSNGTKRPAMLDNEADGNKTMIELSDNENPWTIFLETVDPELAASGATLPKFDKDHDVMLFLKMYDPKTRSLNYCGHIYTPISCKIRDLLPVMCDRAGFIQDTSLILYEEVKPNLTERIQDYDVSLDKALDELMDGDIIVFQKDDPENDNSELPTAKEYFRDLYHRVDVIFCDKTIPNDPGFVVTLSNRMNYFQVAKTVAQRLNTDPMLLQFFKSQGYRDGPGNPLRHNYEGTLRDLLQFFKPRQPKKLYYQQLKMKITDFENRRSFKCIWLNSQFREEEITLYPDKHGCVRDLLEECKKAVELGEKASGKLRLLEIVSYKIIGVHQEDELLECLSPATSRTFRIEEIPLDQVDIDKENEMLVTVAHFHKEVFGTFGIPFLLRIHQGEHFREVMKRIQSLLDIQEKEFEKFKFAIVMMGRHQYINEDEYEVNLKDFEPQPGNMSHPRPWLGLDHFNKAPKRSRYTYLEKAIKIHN
Broadly, the IC50 is the concentration that inhibits the measured activity by half. Read a high IC50 as weaker potency. Consider `CC1CCC(=O)N1Cc1cc2nccc(-c3cc(Cl)cc4c3O[C@@H](C(=O)N3CCNCC3)C4)c2s1` (stereo partly drawn) [1-((7-((R)-5-chloro-2-(piperazine-1-carbonyl)-2,3-dihydrobenzofuran-7-yl)thieno[3,2-b]pyridin-2-yl)methyl)-5-methylpyrrolidin-2-one], for which the concentration for half-maximal inhibition (IC50) was less than 1 µM.

Consider `C[C@H](c1cc2nccc(-c3cc(Cl)cc4c3O[C@@H](C(=O)N3CCNCC3)C4)c2s1)N1C(=O)CCC1=O` [1-((R)-1-(7-((R)-5-chloro-2-(piperazine-1-carbonyl)-2,3-dihydrobenzofuran-7-yl)thieno[3,2-b]pyridin-2-yl)ethyl)pyrrolidine-2,5-dione], for which the concentration for half-maximal inhibition (IC50) is less than 1 µM.

The molecule `C[C@@H](c1cc2nccc(-c3cc(Cl)cc4c3O[C@@H](C(=O)N3CCNCC3)C4)c2s1)N1C(=O)CCC1=O` [1-((S)-1-(7-((R)-5-chloro-2-(piperazine-1-carbonyl)-2,3-dihydrobenzofuran-7-yl)thieno[3,2-b]pyridin-2-yl)ethyl)pyrrolidine-2,5-dione] returned a 50% inhibitory concentration (IC50) of less than 1 µM.

Turning to `CC(C)(O)C1Cc2nccc(-c3cc(Cl)cc4c3O[C@@H](c3onc5c3CNCC5)C4)c2C1` (stereo partly drawn) [2-(4-((R)-5-chloro-2-(4,5,6,7-tetrahydroisoxazolo[4,3-c]pyridin-3-yl)-2,3-dihydrobenzofuran-7-yl)-6,7-dihydro-5H-cyclopenta[b]pyridin-6-yl)propan-2-ol], the IC50 is 1 to 10 µM.

Molecule `CCC(O)(C(=O)N(C)C)c1cc2nccc(-c3cc(Cl)cc4c3O[C@@H](C(=O)N3CCNCC3)C4)c2s1` (stereo partly drawn) [2-(7-((R)-5-chloro-2-(piperazine-1-carbonyl)-2,3-dihydrobenzofuran-7-yl)thieno[3,2-b]pyridin-2-yl)-2-hydroxy-N,N-dimethylbutanamide] showed a half-maximal inhibitory concentration (IC50) of less than 1 µM.

In turn, `CCC(O)(CC)C1Cc2nccc(-c3cc(Cl)cc4c3O[C@@H](c3onc5c3CNCC5)C4)c2C1` (stereo partly drawn) [3-(4-((R)-5-chloro-2-(4,5,6,7-tetrahydroisoxazolo[4,3-c]pyridin-3-yl)-2,3-dihydrobenzofuran-7-yl)-6,7-dihydro-5H-cyclopenta[b]pyridin-6-yl)pentan-3-ol] showed an IC50 of 1 to 10 µM.

Consider `Clc1cc2c(c(-c3ccnc4[nH]ccc34)c1)OC(c1n[nH]c3c1CNCC3)C2` (centres unmarked) [3-(5-chloro-7-(1H-pyrrolo[2,3-b]pyridin-4-yl)-2,3-dihydrobenzofuran-2-yl)-4,5,6,7-tetrahydro-1H-pyrazolo[4,3-c]pyridine], for which the IC50 was in the range of 1 to 10 µM.

The molecule `Clc1cc2c(c(-c3ccnc4[nH]ccc34)c1)OC(c1onc3c1CCNC3)C2` (centres unmarked) [3-(5-chloro-7-(1H-pyrrolo[2,3-b]pyridin-4-yl)-2,3-dihydrobenzofuran-2-yl)-4,5,6,7-tetrahydroisoxazolo[3,4-c]pyridine] registered an IC50 of 1 to 10 µM.

Turning to `Clc1cc2c(c(-c3ccnc4[nH]ccc34)c1)OC(c1onc3c1CNCC3)C2` (centres unmarked) [3-(5-chloro-7-(1H-pyrrolo[2,3-b]pyridin-4-yl)-2,3-dihydrobenzofuran-2-yl)-4,5,6,7-tetrahydroisoxazolo[4,3-c]pyridine], the half-inhibitory concentration (IC50) was less than 1 µM.

`Clc1cc2c(c(-c3ccnc4ccnn34)c1)OC(c1onc3c1CNCC3)C2` (centres unmarked) [3-(5-chloro-7-(pyrazolo[1,5-a]pyrimidin-7-yl)-2,3-dihydrobenzofuran-2-yl)-4,5,6,7-tetrahydroisoxazolo[4,3-c]pyridine] returned a half-inhibitory concentration (IC50) of 1 to 10 µM.

`Clc1cc2c(c(-c3ccncc3)c1)OC(c1onc3c1CNCC3)C2` (centres unmarked) [3-(5-chloro-7-(pyridin-4-yl)-2,3-dihydrobenzofuran-2-yl)-4,5,6,7-tetrahydroisoxazolo[4,3-c]pyridine] showed an IC50 of 1 to 10 µM.

`N#CCC(O)c1cc2nccc(-c3cc(Cl)cc4c3O[C@@H](C(=O)N3CCNCC3)C4)c2s1` (stereo partly drawn) [3-(7-((R)-5-chloro-2-(piperazine-1-carbonyl)-2,3-dihydrobenzofuran-7-yl)thieno[3,2-b]pyridin-2-yl)-3-hydroxypropanenitrile] showed a half-maximal inhibitory concentration (IC50) of less than 1 µM.

Take `CCC(OC)c1cc2nccc(-c3cc(Cl)cc4c3O[C@@H](c3onc5c3CNCC5)C4)c2s1` (stereo partly drawn) [3-((2R)-5-chloro-7-(2-(1-methoxypropyl)thieno[3,2-b]pyridin-7-yl)-2,3-dihydrobenzofuran-2-yl)-4,5,6,7-tetrahydroisoxazolo[4,3-c]pyridine]: the IC50 was less than 1 µM.

As to `O=C(C1Cc2cc(Cl)cc(-c3ccnc(Cn4cnc5ccccc5c4=O)c3)c2O1)N1CCNCC1` (centres unmarked) [3-((4-(5-chloro-2-(piperazine-1-carbonyl)-2,3-dihydrobenzofuran-7-yl)pyridin-2-yl)methyl)quinazolin-4(3H)-one], the 50% inhibitory concentration (IC50) fell in the range of 10 to 30 µM.

On to `OCC(O)(CCl)c1cc2nccc(-c3cc(Cl)cc4c3O[C@@H](c3onc5c3CNCC5)C4)c2s1` (stereo partly drawn) [3-chloro-2-(7-((R)-5-chloro-2-(4,5,6,7-tetrahydroisoxazolo[4,3-c]pyridin-3-yl)-2,3-dihydrobenzofuran-7-yl)thieno[3,2-b]pyridin-2-yl)propane-1,2-diol], for which the IC50 was less than 1 µM.

The molecule `CNC(=O)c1cc2c(-c3cc(Cl)cc4c3OC(C(=O)N3CCNCC3)C4)ccnc2[nH]1` (centres unmarked) [4-(5-Chloro-2-(piperazine-1-carbonyl)-2,3-dihydrobenzofuran-7-yl)-N-methyl-1H-pyrrolo[2,3-b]pyridine-2-carboxamide] had a half-maximal inhibitory concentration (IC50) of 10 to 30 µM.

`NC(=O)c1c[nH]c2nccc(-c3cc(Cl)cc4c3OC(C(=O)N3CCNCC3)C4)c12` (centres unmarked) [4-(5-chloro-2-(piperazine-1-carbonyl)-2,3-dihydrobenzofuran-7-yl)-1H-pyrrolo[2,3-b]pyridine-3-carboxamide]: the IC50 is 1 to 10 µM.

Consider `O=C(Nc1ccc(F)cc1)c1cc2c(-c3cc(Cl)cc4c3OC(C(=O)N3CCNCC3)C4)ccnc2[nH]1` (centres unmarked) [4-(5-chloro-2-(piperazine-1-carbonyl)-2,3-dihydrobenzofuran-7-yl)-N-(4-fluorophenyl)-1H-pyrrolo[2,3-b]pyridine-2-carboxamide], for which the half-maximal inhibitory concentration (IC50) was 1 to 10 µM.

On to `CNC(=O)c1ccc2c(-c3cc(Cl)cc4c3OC(C(=O)N3CCNCC3)C4)ccnc2c1` (centres unmarked) [4-(5-chloro-2-(piperazine-1-carbonyl)-2,3-dihydrobenzofuran-7-yl)-N-methylquinoline-7-carboxamide], for which the IC50 lay in the range of 1 to 10 µM.

Take `N#Cc1ccc2nccc(-c3cc(Cl)cc4c3OC(C(=O)N3CCNCC3)C4)c2c1` (centres unmarked) [4-(5-chloro-2-(piperazine-1-carbonyl)-2,3-dihydrobenzofuran-7-yl)quinoline-6-carbonitrile]: the IC50 was 10 to 30 µM.

`N#Cc1ccc2c(-c3cc(Cl)cc4c3OC(C(=O)N3CCNCC3)C4)ccnc2c1` (centres unmarked) [4-(5-chloro-2-(piperazine-1-carbonyl)-2,3-dihydrobenzofuran-7-yl)quinoline-7-carbonitrile] showed a 50% inhibitory concentration (IC50) of less than 1 µM.

The molecule `NC(=O)C1Cc2nccc(-c3cc(Cl)cc4c3O[C@@H](c3onc5c3CNCC5)C4)c2C1` (stereo partly drawn) [4-((R)-5-chloro-2-(4,5,6,7-tetrahydroisoxazolo[4,3-c]pyridin-3-yl)-2,3-dihydrobenzofuran-7-yl)-6,7-dihydro-5H-cyclopenta[b]pyridine-6-carboxamide] had a concentration for half-maximal inhibition (IC50) of 1 to 10 µM.

The molecule `CN(C)C(=O)C1Cc2nccc(-c3cc(Cl)cc4c3O[C@@H](c3onc5c3CNCC5)C4)c2C1` (stereo partly drawn) [4-((R)-5-chloro-2-(4,5,6,7-tetrahydroisoxazolo[4,3-c]pyridin-3-yl)-2,3-dihydrobenzofuran-7-yl)-N,N-dimethyl-6,7-dihydro-5H-cyclopenta[b]pyridine-6-carboxamide] registered a half-maximal inhibitory concentration (IC50) of 1 to 10 µM.

`CNC(=O)C1Cc2nccc(-c3cc(Cl)cc4c3O[C@@H](c3onc5c3CNCC5)C4)c2C1` (stereo partly drawn) [4-((R)-5-chloro-2-(4,5,6,7-tetrahydroisoxazolo[4,3-c]pyridin-3-yl)-2,3-dihydrobenzofuran-7-yl)-N-methyl-6,7-dihydro-5H-cyclopenta[b]pyridine-6-carboxamide] had an IC50 of 1 to 10 µM.

The molecule `O=C1CCC(c2cc3nccc(-c4cc(Cl)cc5c4O[C@@H](c4onc6c4CNCC6)C5)c3s2)N1` (stereo partly drawn) [5-(7-((R)-5-chloro-2-(4,5,6,7-tetrahydroisoxazolo[4,3-c]pyridin-3-yl)-2,3-dihydrobenzofuran-7-yl)thieno[3,2-b]pyridin-2-yl)pyrrolidin-2-one] gave an IC50 of 1 to 10 µM.

`O=C1NC(=O)C(c2cc3nccc(-c4cc(Cl)cc5c4O[C@@H](C(=O)N4CCNCC4)C5)c3s2)N1` (stereo partly drawn) [5-(7-((R)-5-chloro-2-(piperazine-1-carbonyl)-2,3-dihydrobenzofuran-7-yl)thieno[3,2-b]pyridin-2-yl)imidazolidine-2,4-dione]: the half-inhibitory concentration (IC50) is less than 1 µM.

The molecule `O=C(N[C@@H]1CCCNC1)C1Cc2cc(Cl)cc(-c3ccnc4[nH]ccc34)c2O1` (stereo partly drawn) [5-Chloro-N-((R)-piperidin-3-yl)-7-(1H-pyrrolo[2,3-b]pyridin-4-yl)-2,3-dihydrobenzofuran-2-carboxamide] registered an IC50 of 1 to 10 µM.

As for `C[C@@H]1C[C@H](NC(=O)C2Cc3cc(Cl)cc(-c4ccnc5[nH]ccc45)c3O2)CCN1` (stereo partly drawn) [5-chloro-N-((2R,4R)-2-methylpiperidin-4-yl)-7-(1H-pyrrolo[2,3-b]pyridin-4-yl)-2,3-dihydrobenzofuran-2-carboxamide], the IC50 fell in the range of 1 to 10 µM.

`C[C@H]1C[C@H](NC(=O)C2Cc3cc(Cl)cc(-c4ccnc5[nH]ccc45)c3O2)CCN1` (stereo partly drawn) [5-chloro-N-((2S,4R)-2-methylpiperidin-4-yl)-7-(1H-pyrrolo[2,3-b]pyridin-4-yl)-2,3-dihydrobenzofuran-2-carboxamide] showed an IC50 of 1 to 10 µM.

`NC(=O)c1cc2nccc(-c3cc(Cl)cc4c3OC(C(=O)N3CCNCC3)C4)c2s1` (centres unmarked) [7-(5-chloro-2-(piperazine-1-carbonyl)-2,3-dihydrobenzofuran-7-yl)thieno[3,2-b]pyridine-2-carboxamide]: the concentration for half-maximal inhibition (IC50) lay within 1 to 10 µM.

Regarding `O=C1c2ccccc2C2(c3cc4ncnc(-c5cc(Cl)cc6c5O[C@@H](c5onc7c5CNCC7)C6)c4s3)OCCN12` (stereo partly drawn) [9b-(4-((R)-5-chloro-2-(4,5,6,7-tetrahydroisoxazolo[4,3-c]pyridin-3-yl)-2,3-dihydrobenzofuran-7-yl)thieno[3,2-d]pyrimidin-6-yl)-2,3-dihydrooxazolo[2,3-a]isoindol-5(9bH)-one], the IC50 is 10 to 30 µM.

`C=CCC1(C(=O)N2CCNCC2)Cc2cc(Cl)cc(-c3ccnc4[nH]ccc34)c2O1` (centres unmarked) [(2-allyl-5-chloro-7-(1H-pyrrolo[2,3-b]pyridin-4-yl)-2,3-dihydrobenzofuran-2-yl)(piperazin-1-yl)methanone] registered a half-maximal inhibitory concentration (IC50) of 10 to 30 µM.
